Key:
[1] = system: LPS-induced TNF-α production; experiment: Inhibition of LPS-induced TNF-α production in PBMac (ELISA); format: cell-based, Human; conditions: for inhibition of LPS-induced TNF-α protein production: PBMac pre-incubated with compound 18 h, then 10 ng/ml LPS for 24 h, ELISA of supernatant, mean±S.D., compound concentration not given (25 and 50 ug/ml tested)
Protocol: FIGS. 2 (A-C) show the inhibition of LPS-induced TNF-α production by Compound A1, Compound A2 and Cim A. PBMac cells are incubated with (A) 25 and 50 ug/ml A1 or (B) 25 and 50 ug/ml A2 or (C) 25 and 50 ug/ml Cim A for 18 h prior to the addition of 10 ng/ml LPS for another 24 h. The culture supernatants are collected and assayed for TNF-α production by enzyme-linked immunosorbent assay (ELISA). The results shown are the mean values±standard derivation (S.D.) of at least three independent experiments, with cells obtained from different donors. * P<0.05, ** P<0.01 compared with the control.
Endotoxin (lipopolysachamide, LPS) from E. coli was purchased from Sigma and used as an inducer of TNF-α expression. Dexamethasone (Sigma) was used as a control drug to inhibit the LPS induction of TNF-α.
(§1) Human peripheral blood monocytic cells (PBMC) were isolated from the buffy coat of healthy donor blood supplied by Hong Kong Red Cross by Ficoll-Paque (Amersham Pharmacia Biotech, Piscataway, N.J.) density gradient centrifugation as described in our previous reports. In brief, the buffy coat was spun at 3000 rotations per min (rpm) for 15 min to separate the blood cells and the plasma. The heat inactivated serum was filtered for future use.
(§2) The cell layer was diluted with phosphate buffered saline (PBS) in a ratio of 1:1. The diluted cells were overlaid on Ficoll-Paque slowly and centrifuged at 2300 rpm for 20 min for separation of mononuclear cells from erythrocytes. The mononuclear cell layer was removed and washed with RPMI 1640 medium until the supernatant was clear.
(§3) The cells were finally resuspended in RPMI 1640 medium supplemented with 5% autologous serum and cultured for 1 hr. The non-adherent cells were removed afterwards and the remaining adherent cells were further incubated for another 24 hr at 37° C. in 5% carbon dioxide (CO2).
(§4) The adherent monocytic cells were detached and seeded onto tissue culture plates and incubated for another 7-14 days in order to differentiate the primary blood monocytic cells to primary blood macrophages (PBMac).
Culture supernatants of the LPS-treated PBMac, with or without pretreatment of Cim A, Compound A1 or Compound A2, were collected at different time intervals and stored at −70° C. The levels of the secreted TNF-α were measured by ELISA kits specific for the cytokine (R&D system, Minneapolis, Minn.).

PBMac = experiment: MTT cytotoxicity assay on PBMac; format: cell-based, Human; conditions: 25-75 ug/ml, time course of 48 h
Protocol: Incubation of PBMac cells with the compounds at various concentrations produces no significant difference in the metabolic activities of the cells, when compared to control. Cytotoxic effects of Compounds A1, A2 and Cim A (25-75 ug/ml) on PBMac are determined by MTT (3-[4,5-dimethylthiazol-2-yl]-2,5-di-phenyltetrazolim bromide) assays over a time course of 48 h.
as §1, §2, §3, §4

| SMILES | inhibition of LPS-induced TNF-α protein production [1] | cytotoxic effects (MTT, metabolic activity of cells vs control) (PBMac) | activity in inhibiting LPS-induced TNF-α production, higher than that of Cim A ([1]; compound at 50 μg/ml, relative to Cim A) |
| --- | --- | --- | --- |
| COc1ccc(/C=C/C(=O)OCC(=O)Cc2ccc(O)c(O)c2)cc1O [Cim A, Cimiracemate A, reference compound] | 50±19% | almost no cytotoxic effects | – |
| COc1ccc(/C=C/C(=O)OCC(=O)Cc2ccc(O)c(O)c2)cc1 [Compound A2] | 67±10% | almost no cytotoxic effects | 34% |
| O=C(COC(=O)/C=C/c1ccc(O)c(O)c1)Cc1cccc(O)c1 [Compound A1] | 26±15% | almost no cytotoxic effects | – |
